In patent publication US9737078B2, “Compositions comprising a biological control agent and an insecticide” (priority 2012, dated 2017):

Tests used:
Myzus persicae = Myzus persicae spray test (MYZUPE), Chinese cabbage leaf-disks; format: in vivo
Method: (§1) For all examples efficiencies of the compositions comprising at least one BCA and at least one specific insecticide has been determined by the “Colby-formula”: The expected efficacy of a given combination of two compounds is calculated as follows (see Colby, S. R., “Calculating Synergistic and antagonistic Responses of Herbicide Combinations”, Weeds 15, pp. 20-22, 1967):
(§2) If • X is the efficacy expressed in % mortality of the untreated control for test compound A at a concentration of m ppm respectively m g/ha, • Y is the efficacy expressed in % mortality of the untreated control for test compound B at a concentration of n ppm respectively n g/ha, • E is the efficacy expressed in % mortality of the untreated control using the mixture of A and B at m and n ppm respectively m and n g/ha, • then is E=X+Y−(X×Y/100)
(§3) If the observed insecticidal efficacy of the combination is higher than the one calculated as “E”, then the combination of the two compounds is more than additive, i.e., there is a synergistic effect.
(§4) To produce a suitable preparation of active compound, 1 part by weight of active compound is mixed with the stated amount of solvent and emulsifier, and the concentrate is diluted with emulsifier-containing water to the desired concentration. To produce a suitable preparation of a spore suspension the spores are diluted with emulsifier-containing water to the desired concentration. Chinese cabbage (Brassica pekinensis) leaf-disks infected with all instars of the green peach aphid (Myzus persicae), are sprayed with a preparation of the active ingredient of the desired concentration.
After the specified period of time, mortality in % is determined. 100% means all aphids have been killed; 0% means none of the aphids have been killed. The mortality values determined thus are recalculated using the Colby-formula (see above).

Tetranychus urticae = Tetranychus urticae spray test, OP-resistant, French beans; format: in vivo
Method: as §1, §2, §3
as §4, with “French beans (Phaseolus vulgaris) which are heavily infested” for “Chinese cabbage (Brassica pekinensis) leaf-disks infected”, “stages” for “instars”, “two spotted spidermite (Tetranychus urticae),” for “green peach aphid (Myzus persicae),”
After the specified period of time, mortality in % is determined. 100% means all spider mites have been killed and 0% means none of the spider mites have been killed. The mortality values determined thus are recalculated using the Colby-formula (see above).

Q: What does the source list for `Cc1cc(C)c(C2=C(OC(=O)CC(C)(C)C)C3(CCCC3)OC2=O)c(C)c1` [Spiromesifen (1222), Spiromesifen]?
A: Efficacy in % after 6d (mortality) (Myzus persicae; 20 g/ha): 70%; Efficacy in % after 6d (mortality) (Tetranychus urticae; 0.8 g ai/ha, after 6 d): 0%; Efficacy in % after 2d (mortality) (Tetranychus urticae; 4 g ai/ha, after 2 d): 0%

Q: How did the mortality at 0.8 g/ha (Myzus persicae; Myzus persicae, 144 h, 0.8 g/ha, after 6 d, read-out: Efficacy in % after 6d (mortality)) turn out when `CCOC(=O)OC1=C(c2cc(C)ccc2C)C(=O)N[C@]12CC[C@@H](OC)CC2` [Spirotetramate (1223), Spirotetramat] was run?
A: 0%

Q: And the mortality at 4 g/ha (Myzus persicae; Myzus persicae, 144 h, 4 g/ha, after 6 d, read-out: Efficacy in % after 6d (mortality))?
A: 70%

Q: And the mortality at 20 g/ha (Tetranychus urticae; Tetranychus urticae, 48 h, 20 g ai/ha, after 2 d, read-out: Efficacy in % after 2d (mortality))?
A: 0%

Q: And the mortality at 0.8 g/ha (Tetranychus urticae; Tetranychus urticae, 144 h, 0.8 g ai/ha, after 6 d, read-out: Efficacy in % after 6d (mortality))?
A: 0%
